Data reported in patent publication US20160158200A1, “Combinations of Hepatitis C Virus Inhibitors” (priority 2013, published 2016).

System: HCV genotype-1a variant with glutamine 30 changed to glutamate in the NS5A protein
Format: cell-based
Conditions: test compound titrated with BMS-790052 fixed at 200 nM; genotype 1a Q30E replicon
Text: The NS5A synergistic inhibitory effect of test compounds can be determined using various amounts of an NS5A-targeting compound with titration of a second compound of interest. […] In one embodiment, the HCV genotype strain can be genotype 1a containing a change at amino acid 30 of the NS5A protein consisting of glutamine to glutamate. The test compound can be chosen from compounds listed above or from others present in the literature.

Row | SMILES | Fold-Synergistic 1a (Q30E) [fold]
1 | COC(=O)NC(C(=O)NC(c1nc(-c2ccc(-c3ccc(-c4c[nH]c(C(NC(=O)C(NC(=O)OC)C5CC(C)OC(C)C5)C(C)(C)C)n4)cc3)cc2)c[nH]1)C(C)(C)C)C1CC(C)OC(C)C1 [Compound L-72] | >10
2 | CC(C)[C@H](NC(=O)c1c(F)cccc1Cl)c1ncc(-c2ccc(-c3ccc(-c4cnc([C@@H](NC(=O)c5c(F)cccc5Cl)C(C)(C)C)[nH]4)cc3)cc2)[nH]1 [Compound Y-43] | >100
3 | CC(C)[C@H](N[S+]([O-])C(C)(C)C)c1ncc(-c2ccc(-c3ccc(-c4cnc([C@@H](N[S+]([O-])C(C)(C)C)C(C)C)[nH]4)cc3)cc2)[nH]1 (stereo partly shown) [Compound Y-61] | <10
4 | CC1CN(C(=O)C(=O)N[C@H](c2nc(-c3ccc(-c4ccc(-c5c[nH]c([C@@H](NC(=O)C(=O)N6CC(C)OC(C)C6)C(C)(C)C)n5)cc4)cc3)c[nH]2)C(C)(C)C)CC(C)O1 (single isomer, unassigned) [Compound W-40B] | >100
5 | CC(C)[C@H](NC(=O)COc1ccccc1)c1ncc(-c2ccc(-c3ccc(-c4cnc([C@@H](NC(=O)COc5ccccc5)C(C)C)[nH]4)cc3)cc2)[nH]1 [Compound S-35] | >100
6 | CN(C(=O)OC(C)(C)C)C1(C(=O)N[C@H](c2nc(-c3ccc(-c4ccc(-c5c[nH]c([C@@H](NC(=O)C6(N(C)C(=O)OC(C)(C)C)CCC6)C(C)(C)C)n5)cc4)cc3)c[nH]2)C(C)(C)C)CCC1.O=C(O)C(F)(F)F.O=C(O)C(F)(F)F [Compound L-14] | >100
7 | CC(C)(C)[C@H](NC(=O)c1c(F)cccc1Cl)c1nc(-c2ccc(-c3ccc(-c4c[nH]c([C@@H](NC(=O)c5c(F)cccc5Cl)C(C)(C)C)n4)cc3)cc2)c[nH]1 [Compound N-66] | >100
8 | CC(C)(C)[C@H](NC(=O)C1CCOCC1)c1nc(-c2ccc(-c3ccc(-c4c[nH]c([C@@H](NC(=O)C5CCOCC5)C(C)(C)C)n4)cc3)cc2)c[nH]1 [Compound W-123] | >100
9 | CC(C)(C)C(NC(=O)C1CCCCC1c1ccccc1)c1nc(-c2ccc(-c3ccc(-c4c[nH]c(C(NC(=O)C5CCCCC5c5ccccc5)C(C)(C)C)n4)cc3)cc2)c[nH]1 (mixture of isomers) [Compound S-269] | >100
10 | CN(C)C(=O)C(=O)NC1(C(=O)N[C@H](c2nc(-c3ccc(-c4ccc(-c5c[nH]c([C@@H](NC(=O)C6(NC(=O)C(=O)N(C)C)CCCCC6)C(C)(C)C)n5)cc4)cc3)c[nH]2)C(C)(C)C)CCCCC1 [Compound W-268] | >100
11 | CC(C)(C)OC(=O)N1CCCC1C(=O)NC(c1nc(-c2ccc(-c3ccc(-c4c[nH]c(C(NC(=O)C5CCCN5C(=O)OC(C)(C)C)C(C)(C)C)n4)cc3)cc2)c[nH]1)C(C)(C)C (stereo not shown) [Compound W-87] | >100
12 | CC(C)(C)C(=O)NC1(C(=O)N[C@H](c2nc(-c3ccc(-c4ccc(-c5c[nH]c([C@@H](NC(=O)C6(NC(=O)C(C)(C)C)CCCCC6)C(C)(C)C)n5)cc4)cc3)c[nH]2)C(C)(C)C)CCCCC1 [Compound W-262] | >100
13 | O=C(N1CCC[C@H]1c1ncc(-c2ccc(-c3ccc(-c4cnc([C@@H]5CCCN5C(=O)C5(c6ccc(F)cc6Cl)CCCC5)[nH]4)cc3)cc2)[nH]1)C1(c2ccc(F)cc2Cl)CCCC1 [Compound S-156] | <10
14 | Cc1ncoc1C(=O)N[C@H](c1ncc(-c2ccc(-c3ccc(-c4cnc([C@@H](NC(=O)c5ocnc5C)C(C)C)[nH]4)cc3)cc2)[nH]1)C(C)C [Compound P-93] | >100
15 | COc1ccccc1C(O)CC(=O)N[C@H](c1nc(-c2ccc(-c3ccc(-c4c[nH]c([C@@H](NC(=O)C5(C(O)c6ccccc6OC)CC5)C(C)(C)C)n4)cc3)cc2)c[nH]1)C(C)(C)C (single isomer, unassigned) [Compound N-135A] | >100
16 | CC(C)[C@H](NC(=O)CC(C)(C)C)c1ncc(-c2ccc(-c3ccc(-c4cnc([C@@H](NC(=O)CC(C)(C)C)C(C)C)[nH]4)cc3)cc2)[nH]1 [Compound P-56] | >100
17 | CC(C)(C)[C@H](NC(=O)C1CC12CCC(F)(F)CC2)c1nc(-c2ccc(-c3ccc(-c4c[nH]c([C@@H](NC(=O)C5CC56CCC(F)(F)CC6)C(C)(C)C)n4)cc3)cc2)c[nH]1 (single isomer, unassigned) [Compound Y-95] | >100
18 | CC1(C)CC(C(=O)N[C@H](c2nc(-c3ccc(-c4ccc(-c5c[nH]c([C@@H](NC(=O)C6CCOC(C)(C)C6)C(C)(C)C)n5)cc4)cc3)c[nH]2)C(C)(C)C)CCO1 (stereo partly shown) [Compound W-122] | >100
19 | CC1(C(=O)NC(c2nc(-c3ccc(-c4ccc(-c5c[nH]c(C(NC(=O)C6(C)CCC(F)(F)CO6)C(C)(C)C)n5)cc4)cc3)c[nH]2)C(C)(C)C)CCC(F)(F)CO1 (single isomer, unassigned) [Compound Y-67B] | >100

Row | SMILES | Fold-Synergistic 1a (Q30E) [fold]
20 | CC(C)OC(C)(C)C(=O)N[C@H](c1ncc(-c2ccc(-c3ccc(-c4cnc([C@@H](NC(=O)C(C)(C)OC(C)C)C(C)C)[nH]4)cc3)cc2)[nH]1)C(C)C [Compound Y-29] | >100
21 | CC(C)(C)OC(=O)NC1(C(=O)N[C@H](c2nc(-c3ccc(-c4ccc(-c5c[nH]c([C@@H](NC(=O)C6(NC(=O)OC(C)(C)C)CCC6)C(C)(C)C)n5)cc4)cc3)c[nH]2)C(C)(C)C)CCC1.O=C(O)C(F)(F)F.O=C(O)C(F)(F)F [Compound L-5] | >100
22 | CCN(CC(F)(F)F)C(=O)C(=O)NC(c1nc(-c2ccc(-c3ccc(-c4c[nH]c(C(NC(=O)C(=O)N(CC)CC(F)(F)F)C5CC5)n4)cc3)cc2)c[nH]1)C1CC1 [Compound L-35] | >100
23 | CC1(C)CC1C(=O)N[C@H](c1ncc(-c2ccc(-c3ccc(-c4cnc([C@@H](NC(=O)C5CC5(C)C)C(C)(C)C)[nH]4)cc3)cc2)[nH]1)C(C)(C)C (single isomer, unassigned) [Compound B81] | >100
24 | O=C(c1nccc2ccccc12)N1CCC[C@H]1c1ncc(-c2ccc(-c3ccc(-c4cnc([C@@H]5CCCN5C(=O)c5nccc6ccccc56)[nH]4)cc3)cc2)[nH]1 [Compound S-202] | >100
25 | CC(C)(C)[C@H](NC(=O)C1(C(O)c2ccccc2)CC1)c1nc(-c2ccc(-c3ccc(-c4c[nH]c([C@@H](NC(=O)C5(C(O)c6ccccc6)CC5)C(C)(C)C)n4)cc3)cc2)c[nH]1 (single isomer, unassigned) [Compound N-126A] | >100
26 | CC(C)(C)[C@H](NC(=O)C12CCC(CC1)C2)c1nc(-c2ccc(-c3ccc(-c4c[nH]c([C@@H](NC(=O)C56CCC(CC5)C6)C(C)(C)C)n4)cc3)cc2)c[nH]1 [Compound S-261] | >100
27 | CC(C)[C@H](NC(=O)c1ccc(Cl)s1)c1ncc(-c2ccc(-c3ccc(-c4cnc([C@@H](NC(=O)c5ccc(Cl)s5)C(C)(C)C)[nH]4)cc3)cc2)[nH]1 [Compound Y-44] | >100
28 | COC(=O)NC1CCCCC1C(=O)NC(c1nc(-c2ccc(-c3ccc(-c4c[nH]c(C(NC(=O)C5CCCCC5NC(=O)OC)C(C)(C)C)n4)cc3)cc2)c[nH]1)C(C)(C)C (mixture of isomers) [Compound S-275] | >100
29 | CC(C)C(NC(=O)C1CC1c1ccccc1)c1ncc(-c2ccc(-c3ccc(-c4cnc(C(NC(=O)C5CC5c5ccccc5)C(C)C)[nH]4)cc3)cc2)[nH]1 (stereo not shown) [Compound S-21] | >100
30 | CC(C)[C@H](NC(=O)C(F)F)c1ncc(-c2ccc(-c3ccc(-c4cnc([C@@H](NC(=O)C(F)F)C(C)C)[nH]4)cc3)cc2)[nH]1 [Compound S-11] | >100
31 | CC(C)[C@H](NC(=O)c1ccc(C#N)cc1)c1ncc(-c2ccc(-c3ccc(-c4cnc([C@@H](NC(=O)c5ccc(C#N)cc5)C(C)C)[nH]4)cc3)cc2)[nH]1 [Compound S-81] | >100
32 | COc1ccc2cc([C@@H](C)C(=O)N[C@H](c3nc(-c4ccc(-c5ccc(-c6c[nH]c([C@@H](NC(=O)[C@H](C)c7ccc8cc(OC)ccc8c7)C(C)(C)C)n6)cc5)cc4)c[nH]3)C(C)(C)C)ccc2c1 [Compound S-254] | >100
33 | CC(C)[C@H](NC(=O)c1c(F)cccc1Cl)c1ncc(-c2ccc(-c3ccc(-c4cnc([C@@H](NC(=O)c5c(F)cccc5Cl)C(C)C)[nH]4)cc3)cc2)[nH]1 [Compound S-6] | >100
34 | CC(C)(C)[C@H](NC(=O)[C@@]1(C)CCC(F)(F)CO1)c1ncc(-c2ccc(-c3ncc(-c4cnc([C@@H](NC(=O)[C@@]5(C)CCC(F)(F)CO5)C(C)(C)C)[nH]4)cn3)cc2)[nH]1 [Compound Y-84, (R)—N—((S)-1-(5-(2-(4-(2-((S)-1-((R)-5,5-difluoro-2-methyltetrahydro-2H-pyran-2-carboxamido)-2,2-dimethylpropyl)-1H-imidazol-5-yl)phenyl)pyrimidin-5-yl)-1H-imidazol-2-yl)-2,2-dimethylpropyl)-5,5-difluoro-2-methyltetrahydro-2H-pyran-2-carboxamide] | >100
35 | CCC(C)(C)C(=O)N[C@H](c1nc(-c2ccc(-c3ccc(-c4c[nH]c([C@@H](NC(=O)C(C)(C)CC)C(C)(C)C)n4)cc3)cc2)c[nH]1)C(C)(C)C [Compound P-11] | >100
36 | CC(C)OC(C)(C)C(=O)N[C@H](c1nc(-c2ccc(-c3ccc(-c4c[nH]c([C@@H](NC(=O)C(C)(C)OC(C)C)C(C)(C)C)n4)cc3)cc2)c[nH]1)C(C)(C)C [Compound Y-1] | >100
37 | C[C@H](C(=O)N[C@H](c1nc(-c2ccc(-c3ccc(-c4c[nH]c([C@@H](NC(=O)[C@@H](C)c5ccccc5)C(C)(C)C)n4)cc3)cc2)c[nH]1)C(C)(C)C)c1ccccc1 [Compound N-60] | >100
